Holding throughout (assay type): biochemical
Test [1] concerns the target GST-tagged SIK2 (Homo sapiens (Human), UniProt Q9H0K1). Briefly: SIK2 inhibition test (ADP-Glo Max Assay). The conditions noted are these: enzyme 3 nM, AMARA Peptide 200 μM, ATP 1 mM, 2 hours room temperature. A digest of the protocol: (§1)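 ADP formed was detected by luciferase luminescence after a 2 h room-temperature reaction with 1 mM ATP, 5 mM MgCl2 and AMARA peptide at 200 μM (SIK1, SIK2) or 100 μM (SIK3). Final GST-enzyme levels were 20 nM SIK1, 3 nM SIK2 and 100 nM SIK3. IC50 came from 16-point concentration-response data.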

In test [2] the target is GST-tagged SIK3 (Homo sapiens (Human), UniProt Q9Y2K2). Description: SIK3 inhibition test (ADP-Glo Max Assay). The settings on record: enzyme 100 nM, AMARA Peptide 100 μM, ATP 1 mM, 2 hours room temperature. An outline of the steps:
as §1

The target in test [3] is GST-tagged SIK1 (Homo sapiens (Human), UniProt P57059). Description: SIK1 inhibition test (ADP-Glo Max Assay). The settings on record: enzyme 20 nM, AMARA Peptide 200 μM, ATP 1 mM, 2 hours room temperature. An outline of the steps: as §1
Sequence of GST-tagged SIK1 (P57059 whole entry): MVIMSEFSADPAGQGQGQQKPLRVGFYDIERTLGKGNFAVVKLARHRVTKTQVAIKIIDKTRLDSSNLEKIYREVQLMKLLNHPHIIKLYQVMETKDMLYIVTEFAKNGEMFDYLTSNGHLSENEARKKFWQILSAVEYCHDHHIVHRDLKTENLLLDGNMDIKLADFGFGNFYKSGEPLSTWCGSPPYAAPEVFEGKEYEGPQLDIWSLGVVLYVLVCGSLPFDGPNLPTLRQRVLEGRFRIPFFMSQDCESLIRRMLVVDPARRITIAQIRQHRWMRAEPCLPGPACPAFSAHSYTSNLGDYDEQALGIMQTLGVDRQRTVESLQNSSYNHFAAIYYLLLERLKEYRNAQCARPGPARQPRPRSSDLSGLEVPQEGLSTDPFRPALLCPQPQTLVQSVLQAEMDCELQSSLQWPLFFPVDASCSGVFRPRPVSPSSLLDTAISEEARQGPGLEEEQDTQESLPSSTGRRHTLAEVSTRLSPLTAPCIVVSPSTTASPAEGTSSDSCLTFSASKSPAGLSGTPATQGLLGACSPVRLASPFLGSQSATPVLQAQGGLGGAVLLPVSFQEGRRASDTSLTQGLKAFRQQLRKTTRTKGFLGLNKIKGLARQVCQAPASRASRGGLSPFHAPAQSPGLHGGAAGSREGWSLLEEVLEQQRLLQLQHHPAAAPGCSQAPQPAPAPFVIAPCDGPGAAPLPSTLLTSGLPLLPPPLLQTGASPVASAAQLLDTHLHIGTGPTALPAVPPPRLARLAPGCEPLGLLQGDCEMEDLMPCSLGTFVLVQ

Sequence of GST-tagged SIK2 (Q9H0K1 whole entry): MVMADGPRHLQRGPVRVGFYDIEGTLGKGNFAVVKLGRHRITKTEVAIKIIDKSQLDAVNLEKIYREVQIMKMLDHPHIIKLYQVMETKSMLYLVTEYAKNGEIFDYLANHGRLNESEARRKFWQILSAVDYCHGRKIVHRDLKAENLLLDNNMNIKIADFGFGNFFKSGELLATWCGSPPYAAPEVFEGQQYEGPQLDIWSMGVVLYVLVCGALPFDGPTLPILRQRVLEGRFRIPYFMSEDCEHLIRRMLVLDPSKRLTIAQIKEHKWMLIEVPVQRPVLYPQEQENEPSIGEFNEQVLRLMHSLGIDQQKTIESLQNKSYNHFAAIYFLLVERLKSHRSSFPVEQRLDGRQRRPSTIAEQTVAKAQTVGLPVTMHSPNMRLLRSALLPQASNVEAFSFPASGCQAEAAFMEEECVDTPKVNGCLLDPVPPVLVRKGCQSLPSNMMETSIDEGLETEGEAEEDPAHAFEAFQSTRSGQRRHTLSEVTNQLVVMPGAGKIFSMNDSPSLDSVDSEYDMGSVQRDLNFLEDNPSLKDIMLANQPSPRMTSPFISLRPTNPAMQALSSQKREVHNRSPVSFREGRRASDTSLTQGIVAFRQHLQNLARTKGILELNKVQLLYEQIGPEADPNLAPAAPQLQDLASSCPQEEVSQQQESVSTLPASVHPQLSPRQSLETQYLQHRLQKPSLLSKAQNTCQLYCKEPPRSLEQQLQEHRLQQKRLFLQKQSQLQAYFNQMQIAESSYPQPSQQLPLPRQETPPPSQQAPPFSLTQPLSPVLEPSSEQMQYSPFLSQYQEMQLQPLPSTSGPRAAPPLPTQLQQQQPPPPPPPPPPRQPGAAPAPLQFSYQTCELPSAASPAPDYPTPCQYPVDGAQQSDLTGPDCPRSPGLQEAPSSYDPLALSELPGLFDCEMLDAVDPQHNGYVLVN
Sequence of GST-tagged SIK3 (Q9Y2K2 whole entry): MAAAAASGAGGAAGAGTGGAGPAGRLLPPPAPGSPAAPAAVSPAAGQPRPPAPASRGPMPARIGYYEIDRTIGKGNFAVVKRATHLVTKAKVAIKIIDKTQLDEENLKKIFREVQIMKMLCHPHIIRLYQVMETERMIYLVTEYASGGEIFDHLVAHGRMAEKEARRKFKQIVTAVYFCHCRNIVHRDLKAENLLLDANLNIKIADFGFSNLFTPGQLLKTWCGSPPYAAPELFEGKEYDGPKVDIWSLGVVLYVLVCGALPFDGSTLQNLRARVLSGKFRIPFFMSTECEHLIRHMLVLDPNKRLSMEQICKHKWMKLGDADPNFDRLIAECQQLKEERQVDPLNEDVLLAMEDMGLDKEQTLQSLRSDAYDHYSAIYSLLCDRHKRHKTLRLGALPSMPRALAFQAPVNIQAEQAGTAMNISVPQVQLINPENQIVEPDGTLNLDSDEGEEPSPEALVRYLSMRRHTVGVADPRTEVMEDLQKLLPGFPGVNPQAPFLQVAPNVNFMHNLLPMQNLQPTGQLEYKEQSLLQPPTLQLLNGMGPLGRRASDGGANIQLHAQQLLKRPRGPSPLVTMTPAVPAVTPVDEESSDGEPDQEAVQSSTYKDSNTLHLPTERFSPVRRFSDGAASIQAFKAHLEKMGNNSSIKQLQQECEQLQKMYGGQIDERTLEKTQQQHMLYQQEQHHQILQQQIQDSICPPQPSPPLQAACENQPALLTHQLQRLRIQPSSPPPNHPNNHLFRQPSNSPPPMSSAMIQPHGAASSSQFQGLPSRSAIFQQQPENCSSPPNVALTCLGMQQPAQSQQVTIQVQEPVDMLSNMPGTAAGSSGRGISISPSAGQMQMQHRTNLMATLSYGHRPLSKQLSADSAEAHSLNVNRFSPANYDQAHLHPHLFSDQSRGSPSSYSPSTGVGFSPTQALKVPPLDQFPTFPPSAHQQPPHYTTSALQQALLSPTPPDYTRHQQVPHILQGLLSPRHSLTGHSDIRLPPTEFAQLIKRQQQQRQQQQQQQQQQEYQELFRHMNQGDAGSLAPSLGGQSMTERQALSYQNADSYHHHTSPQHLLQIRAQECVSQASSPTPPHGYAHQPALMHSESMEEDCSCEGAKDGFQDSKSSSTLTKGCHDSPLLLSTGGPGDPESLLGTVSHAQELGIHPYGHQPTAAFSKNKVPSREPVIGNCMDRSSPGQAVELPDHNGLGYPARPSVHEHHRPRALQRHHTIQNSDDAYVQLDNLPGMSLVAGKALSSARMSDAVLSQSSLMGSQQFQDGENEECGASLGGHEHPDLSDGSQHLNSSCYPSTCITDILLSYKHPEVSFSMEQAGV

On to `COc1cc(-c2c3c(C#N)cc(-c4cnn(C5CCOC5)c4)cc3nn2C)cc(OC(F)F)c1C(=O)N[C@@H]1C[C@@H]1F` (stereo partly drawn) [Example 22, 4-[4-cyano-2-methyl-6-[1-(oxolan-3-yl)pyrazol-4-yl]indazol-3-yl]-2-(difluoromethoxy)-N-[(1R,2S)-2-fluorocyclopropyl]-6-methoxybenzamide], for which the IC50 in test [1] was 3.2 nM; in test [2], 7.7 nM; in test [3] it was 2 nM.
The corresponding values for `COc1cc(-c2c3c(C#N)cc(-c4cnn(C[C@H]5C[C@@H](O)C5)c4)cc3nn2C)cc(OC(F)F)c1C(=O)NCC1(F)CC1` [Example 91, 4-[4-cyano-6-[1-[(cis-3-hydroxycyclobutyl)methyl]pyrazol-4-yl]-2-methylindazol-3-yl]-2-(difluoromethoxy)-N-[(1-fluorocyclopropyl)methyl]-6-methoxybenzamide] are 10.1 nM, 7.3 nM and 17.5 nM.
As to `COc1cc(-c2c3c(C#N)cc(-c4cnn(C)c4)cc3nn2C)cc(OC(F)F)c1C(=O)N[C@@H]1C[C@@H]1F` [Example 1, 4-[4-cyano-2-methyl-6-(1-methylpyrazol-4-yl)indazol-3-yl]-2-(difluoromethoxy)-N-[(1R,2S)-2-fluorocyclopropyl]-6-methoxybenzamide], the IC50 was 2.1 nM in test [1], 2.2 nM in test [2] and 5.9 nM in test [3].
For `COc1cc(-c2c3c(C#N)cc(-c4cnn(C[C@H](C)O)c4)cc3nn2C)cc(OC(F)F)c1C(=O)NCC1(F)CC1` [Example 58, 4-[4-cyano-6-[1-[(2S)-2-hydroxypropyl]pyrazol-4-yl]-2-methylindazol-3-yl]-2-(difluoromethoxy)-N-[(1-fluorocyclopropyl)methyl]-6-methoxybenzamide], the IC50 is 6.7 nM in test [1], 6.3 nM in test [2] and 13.7 nM in test [3].
In the case of `COc1cc(-c2c3c(C#N)cc(-c4cnn(CCC(C)C)c4)cc3nn2C)cc2c1C(=O)NC[C@@H]2C` (single isomer, unassigned) [Example 171], the IC50 in test [1] turned out to be 2.3 nM; in test [2], 4.7 nM; in test [3] it was 9.1 nM.
Turning to `COc1cc(-c2c3c(C#N)cc(-c4cnn(CC(C)C)c4)cc3nn2C)cc(OC(F)F)c1C(N)=O` [Example 135, 4-[4-cyano-2-methyl-6-[1-(2-methylpropyl)pyrazol-4-yl]indazol-3-yl]-2-(difluoromethoxy)-6-methoxybenzamide], the figures for the IC50 in test [1], in test [2] and in test [3] were 6.2 nM, 5.9 nM and 17.2 nM, respectively.
With `COc1cc(-c2c3c(C#N)cc(-c4cnn(C)c4)cc3nn2C)cc(OC(F)F)c1C(=O)NC[C@@H]1CC1(F)F` (single isomer, unassigned) [Example 46], the results for the IC50 in test [1], in test [2] and in test [3] were 5.3 nM, 7.2 nM and 14.7 nM, respectively.
For the compound `COc1cc(-c2c3c(OCCCO)cc(-c4cnn(C)c4)cc3nn2C)cc(OC(F)F)c1C(=O)N1CC(O)(C(F)(F)F)C1` [Example 28, [2-(difluoromethoxy)-4-[4-(3-hydroxypropoxy)-2-methyl-6-(1-methylpyrazol-4-yl)indazol-3-yl]-6-methoxyphenyl]-[3-Hydroxy-3-(trifluoromethyl)azetidin-1-yl]methanone], the IC50 in test [1] was found to be 4.7 nM; in test [2] it was 13.6 nM; in test [3], 7.3 nM.
Turning to `COc1cc(-c2c3c(C#N)cc(-c4cc[nH]n4)cc3nn2C)cc(OC(F)F)c1C(=O)N[C@@H]1C[C@@H]1F` [Example 24, 4-[4-cyano-2-methyl-6-(1H-pyrazol-3-yl)indazol-3-yl]-2-(difluoromethoxy)-N-[(1R,2S)-2-fluorocyclopropyl]-6-methoxybenzamide], the IC50 in test [1] was 6.5 nM; in test [2], 11.8 nM; in test [3], 6.6 nM.
In the case of `COc1cc(-c2c3c(OC)cc(-c4cnn(C)c4)cc3nn2C)cc(OC(F)F)c1C(=O)N[C@@H]1CC1(F)F` [Example 45, N-[(1R)-2,2-difluorocyclopropyl]-2-(difluoromethoxy)-6-methoxy-4-[4-methoxy-2-methyl-6-(1-methylpyrazol-4-yl)indazol-3-yl]benzamide], the half-inhibitory concentration (IC50) in test [1] stood at 8.6 nM; in test [2] it was 9.4 nM; in test [3] it was 18.9 nM.
For `COc1cc(-c2c3c(C#N)cc(-c4cnn(C)c4)cc3nn2C)cc2c1C(=O)NCC2(C)C` [Example 129, 3-(8-methoxy-4,4-dimethyl-1-oxo-2,3-dihydroisoquinolin-6-yl)-2-methyl-6-(1-methylpyrazol-4-yl)indazol-4-carbonitrile], the IC50 came out at 0.9 nM in test [1], 6.6 nM in test [2] and 5.1 nM in test [3].
The matching figures for `COc1cc(-c2c3c(C(F)F)cc(-c4cnn(C)c4)cc3nn2C)cc(OC(F)F)c1C(=O)N1CC(O)(C(F)F)C1` [Example 38, [2-(difluoromethoxy)-4-[4-(difluoromethyl)-2-methyl-6-(1-methylpyrazol-4-yl)indazol-3-yl]-6-methoxyphenyl]-[3-(difluoromethyl)-3-hydroxyazetidin-1-yl]methanone]: 13.8 nM, 10.1 nM and 16.8 nM.
The matching figures for `COc1cc(-c2c3c(C(F)F)cc(-c4cnn(C[C@H](C)O)c4)cc3nn2C)cc(OC(F)F)c1C(=O)N[C@@H]1CC1(F)F` [Example 89, N-[(1R)-2,2-difluorocyclopropyl]-2-(difluoromethoxy)-4-[4-(difluoromethyl)-6-[1-[(2S)-2-hydroxypropyl]pyrazol-4-yl]-2-methylindazol-3-yl]-6-methoxybenzamide]: 12 nM, 2.3 nM and 11 nM.
Regarding `COc1cc(-c2c3c(C#N)cc(-c4cnn(CC(C)(C)O)c4)cc3nn2C)cc(OC(F)F)c1C(=O)NC[C@@H]1CC1(F)F` (single isomer, unassigned) [Example 86], the figures for the IC50 in test [1], in test [2] and in test [3] were 13.1 nM, 19.4 nM and 13.7 nM, respectively.
`COc1cc(-c2c3c(C#N)cc(-c4cnn(C(F)F)c4)cc3nn2C)cc2c1C(=O)NC[C@@H]2C` (single isomer, unassigned) [Example 128]: the concentration for half-maximal inhibition (IC50) in test [1] was found to be 1 nM; in test [2], 6.6 nM; in test [3], 8.2 nM.
On to `COc1cc(-c2c3c(C#N)cc(-c4cnn(C)c4)cc3nn2C)cc(OC(F)F)c1C(=O)N1CC(O)(C(F)F)C1` [Example 25, 3-[3-(difluoromethoxy)-4-[3-(difluoromethyl)-3-hydroxyazetidin-1-carbonyl]-5-methoxyphenyl]-2-methyl-6-(1-methylpyrazol-4-yl)indazole-4-carbonitrile], for which the IC50 turned out to be 10.5 nM in test [1], 12.8 nM in test [2] and 9.6 nM in test [3].
As for `COc1cc(-c2c3c(C#N)cc(-c4cn[nH]c4)cc3nn2C)cc2c1C(=O)NCC2(C)C` [Example 147, 3-(8-methoxy-4,4-dimethyl-1-oxo-2,3-dihydroisoquinolin-6-yl)-2-methyl-6-(1H-pyrazol-4-yl)indazol-4-carbonitrile], the values for the IC50 in test [1], in test [2] and in test [3] were 3.2 nM, 13.4 nM and 6.3 nM, respectively.
For `COc1cc(-c2c3c(C#N)cc(-c4cnn(CC5(O)CCC5)c4)cc3nn2C)cc(OC(F)F)c1C(=O)N[C@@H]1CC1(F)F` [Example 110, 4-[4-cyano-6-[1-[(1-hydroxycyclobutyl)methyl]pyrazol-4-yl]-2-methylindazol-3-yl]-N-[(1R)-2,2-difluorocyclopropyl]-2-(difluoromethoxy)-6-methoxybenzamide], the IC50 in test [1] was found to be 3.2 nM; in test [2] it was 1.7 nM; in test [3], 6.5 nM.
Turning to `COc1cc(-c2c3c(C#N)cc(-c4cnn(C[C@@H](O)c5ccccc5)c4)cc3nn2C)cc(OC(F)F)c1C(=O)NCC1(F)CC1` [Example 97, 4-[4-cyano-6-[1-[(2S)-2-hydroxy-2-phenylethyl]pyrazol-4-yl]-2-methylindazol-3-yl]-2-(difluoromethoxy)-N-[(1-fluorocyclopropyl)methyl]-6-methoxybenzamide], the values for the half-inhibitory concentration (IC50) in test [1], in test [2] and in test [3] were 7.4 nM, 6.1 nM and 15.3 nM, respectively.
Take `CCCn1cc(-c2cc(C#N)c3c(-c4cc(OC)c5c(c4)C(C)(C)CNC5=O)n(C)nc3c2)cn1` [Example 140, 3-(8-methoxy-4,4-dimethyl-1-oxo-2,3-dihydroisoquinolin-6-yl)-2-methyl-6-(1-propylpyrazol-4-yl)indazol-4-carbonitrile]: the half-inhibitory concentration (IC50) in test [1] came to 12.3 nM; in test [2] it was 10.3 nM; in test [3], 7.8 nM.
On to `COc1cc(-c2c3c(OCC(F)F)cc(-c4cnn(C)c4)cc3nn2C)cc(OC(F)F)c1C(=O)N1CC(O)(C(F)(F)F)C1` [Example 41, [4-[4-(2,2-difluoroethoxy)-2-methyl-6-(1-methylpyrazol-4-yl)indazol-3-yl]-2-(difluoromethoxy)-6-methoxyphenyl]-[3-hydroxy-3-(trifluoromethyl)azetidin-1-yl]methanone], for which the figures for the IC50 in test [1], in test [2] and in test [3] were 7.6 nM, 5.3 nM and 1.3 nM, respectively.
On to `COc1cc(-c2c3c(OC)cc(-c4cnn(C)c4)cc3nn2C)cc(OC(F)F)c1C(=O)N1CC(O)(C(F)F)C1` [Example 37, [2-(difluoromethoxy)-6-methoxy-4-[4-methoxy-2-methyl-6-(1-methylpyrazol-4-yl)indazol-3-yl]phenyl]-[3-(difluoromethyl)-3-hydroxyazetidin-1-yl]methanone], for which the IC50 in test [1] stood at 8.3 nM; in test [2], 12.9 nM; in test [3] it was 7.9 nM.

The values above are taken from patent US20260062387A1, “SALT-INDUCIBLE KINASE INHIBITOR COMPOUND AND PHARMACEUTICAL COMPOSITION INCLUDING THE SAME” (MITSUBISHI TANABE PHARMA CORPORATION, priority 2023, published 2026).
